Test results taken from ChEMBL document CHEMBL1201862, “PubChem BioAssay data set” (2004).
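A five-concentration, 48-hour dose response in 96-well plates underlies each endpoint, interpolated linearly between surrounding concentrations. GI50 = concentration required for 50% inhibition of growth.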 Calls of active or inactive are those of the source. Cut-off read from the data, not from the text of the source: active = GI50 up to about 1.1 µM and inactive = higher.

Tests used:
Assay in all cases: NCI tumour cell line growth inhibition, 48 h
KM12 = tested on: KM12
HCT-15 = tested on: HCT-15
SK-MEL-28 = tested on: SK-MEL-28
LOX IMVI = tested on: LOX IMVI
OVCAR-8 = tested on: OVCAR-8
SW-620 = tested on: SW-620
DMS-114 = tested on: DMS-114
786-0 = tested on: 786-0
U-251 = tested on: U-251
SNB-78 = tested on: SNB-78
SN12C = tested on: SN12C
OVCAR-3 = tested on: OVCAR-3
RPMI-8226 = tested on: RPMI-8226
KM-20L2 = tested on: KM-20L2
NCI-H460 = tested on: NCI-H460
CCRF-CEM = tested on: CCRF-CEM
A549 = tested on: A549
OVCAR-5 = tested on: OVCAR-5
NCI-H522 = tested on: NCI-H522
SR = tested on: SR
K562 = tested on: K562
SF-295 = tested on: SF-295
SK-MEL-5 = tested on: SK-MEL-5
Malme-3M = tested on: Malme-3M
HOP-62 = tested on: HOP-62
HCT-116 = tested on: HCT-116
UO-31 = tested on: UO-31
RXF 393 = tested on: RXF 393
EKVX = tested on: EKVX
TK-10 = tested on: TK-10
MOLT-4 = tested on: MOLT-4
SK-OV-3 = tested on: SK-OV-3
UACC-257 = tested on: UACC-257
HL-60 = tested on: HL-60
M19-MEL = tested on: M19-MEL
M14 = tested on: M14
NCI-H23 = tested on: NCI-H23
SK-MEL-2 = tested on: SK-MEL-2
HCC 2998 = tested on: HCC 2998
SF-268 = tested on: SF-268
SNB-19 = tested on: SNB-19
DMS-273 = tested on: DMS-273
COLO 205 = tested on: COLO 205
UACC-62 = tested on: UACC-62
SF-539 = tested on: SF-539
IGROV-1 = tested on: IGROV-1
LXFL 529 = tested on: LXFL 529
ACHN = tested on: ACHN
DLD-1 = tested on: DLD-1
HOP-92 = tested on: HOP-92
CAKI-1 = tested on: CAKI-1
HT-29 = tested on: HT-29
OVCAR-4 = tested on: OVCAR-4
XF498 = tested on: XF498
SNB-75 = tested on: SNB-75

With Nc1nc(N)c(N=O)c(Nc2ccc(I)cc2)n1 the GI50 (KM12) was 18.5 µM (inactive), the GI50 (HCT-15) was 12.2 µM and the GI50 (SK-MEL-28) was 14 µM (inactive). The GI50 (LOX IMVI) was 9.12 µM (inactive), the GI50 (OVCAR-8) was 29.4 µM (inactive) and the GI50 (SW-620) was 30 µM (inactive). The GI50 (DMS-114) was 20.7 µM (inactive), the GI50 (786-0) was 25.5 µM (inactive) and the GI50 (U-251) was 25.3 µM (inactive). The GI50 (SNB-78) was 18.2 µM (inactive), the GI50 (SN12C) was 10.6 µM (inactive) and the GI50 (OVCAR-3) was 13.2 µM (inactive). For the same compound, the GI50 (RPMI-8226) was 20.9 µM (inactive), the GI50 (KM-20L2) was 23.2 µM (inactive) and the GI50 (NCI-H460) was 27.5 µM (inactive). The GI50 (CCRF-CEM) was 13.8 µM (inactive), the GI50 (A549) was 65.8 µM (inactive) and the GI50 (OVCAR-5) was 19.2 µM (inactive). For the same compound, the GI50 (NCI-H522) was 12.1 µM (inactive), the GI50 (SR) was 10.8 µM (inactive) and the GI50 (K562) was 14.1 µM (inactive). For the same compound, the GI50 (SF-295) was 28.6 µM (inactive), the GI50 (SK-MEL-5) was 13.5 µM (inactive) and the GI50 (Malme-3M) was 19.2 µM (inactive). For the same compound, the GI50 (HOP-62) was 16.6 µM (inactive), the GI50 (HCT-116) was 14.3 µM (inactive) and the GI50 (UO-31) was 18 µM (inactive). For the same compound, the GI50 (RXF 393) was 17.9 µM (inactive), the GI50 (EKVX) was > 100 µM (inactive) and the GI50 (TK-10) was 31 µM (inactive). The GI50 (MOLT-4) was 3.98 µM (inactive), the GI50 (SK-OV-3) was 5.33 µM (inactive) and the GI50 (UACC-257) was 19.5 µM (inactive). The GI50 (HL-60) was 6.53 µM (inactive), the GI50 (M19-MEL) was 29.4 µM (inactive) and the GI50 (M14) was 12.4 µM (inactive). The GI50 (NCI-H23) was 18.2 µM (inactive), the GI50 (SK-MEL-2) was 15.3 µM (inactive) and the GI50 (HCC 2998) was 27.5 µM (inactive). For the same compound, the GI50 (SF-268) was 13.9 µM (inactive), the GI50 (SNB-19) was 30.1 µM (inactive) and the GI50 (DMS-273) was 16.5 µM (inactive). For the same compound, the GI50 (COLO 205) was 18.6 µM (inactive), the GI50 (UACC-62) was 7.78 µM (inactive) and the GI50 (SF-539) was 25.5 µM (inactive). For the same compound, the GI50 (IGROV-1) was 3.94 µM (inactive), the GI50 (LXFL 529) was 9.93 µM (inactive) and the GI50 (ACHN) was 24 µM (inactive). For the same compound, the GI50 (DLD-1) was 10 µM (inactive).
With O=C(N/C(=C\c1ccc([N+](=O)[O-])cc1)c1nc2c(O)nc(S)nc2[nH]1)c1ccccc1 the GI50 (KM12) was > 100 µM (inactive), the GI50 (HOP-92) was 43.7 µM (inactive) and the GI50 (HCT-15) was greater than 100 µM. For the same compound, the GI50 (SK-MEL-28) was > 100 µM (inactive), the GI50 (OVCAR-8) was > 100 µM (inactive) and the GI50 (SW-620) was > 100 µM (inactive). For the same compound, the GI50 (DMS-114) was 77.3 µM (inactive), the GI50 (CAKI-1) was > 100 µM (inactive) and the GI50 (786-0) was > 100 µM (inactive). For the same compound, the GI50 (HT-29) was > 100 µM (inactive), the GI50 (U-251) was > 100 µM (inactive) and the GI50 (SNB-78) was > 100 µM (inactive). For the same compound, the GI50 (SN12C) was > 100 µM (inactive), the GI50 (OVCAR-3) was > 100 µM (inactive) and the GI50 (KM-20L2) was > 100 µM (inactive). For the same compound, the GI50 (CCRF-CEM) was 92.3 µM (inactive), the GI50 (A549) was > 100 µM (inactive) and the GI50 (OVCAR-5) was > 100 µM (inactive). For the same compound, the GI50 (NCI-H522) was 57.1 µM (inactive), the GI50 (SR) was > 100 µM (inactive) and the GI50 (K562) was 73.1 µM (inactive). The GI50 (SF-295) was > 100 µM (inactive), the GI50 (SK-MEL-5) was > 100 µM (inactive) and the GI50 (Malme-3M) was > 100 µM (inactive). For the same compound, the GI50 (UO-31) was 30.8 µM (inactive), the GI50 (RXF 393) was > 100 µM (inactive) and the GI50 (EKVX) was > 100 µM (inactive). The GI50 (TK-10) was > 100 µM (inactive), the GI50 (MOLT-4) was 88.7 µM (inactive) and the GI50 (SK-OV-3) was > 100 µM (inactive). The GI50 (OVCAR-4) was 99.5 µM (inactive), the GI50 (M19-MEL) was > 100 µM (inactive) and the GI50 (M14) was > 100 µM (inactive). The GI50 (NCI-H23) was > 100 µM (inactive), the GI50 (SK-MEL-2) was > 100 µM (inactive) and the GI50 (HCC 2998) was > 100 µM (inactive). For the same compound, the GI50 (SF-268) was > 100 µM (inactive), the GI50 (SNB-19) was > 100 µM (inactive) and the GI50 (COLO 205) was > 100 µM (inactive). For the same compound, the GI50 (UACC-62) was > 100 µM (inactive), the GI50 (SF-539) was > 100 µM (inactive) and the GI50 (IGROV-1) was > 100 µM (inactive). The GI50 (LXFL 529) was 65.2 µM (inactive), the GI50 (XF498) was > 100 µM (inactive) and the GI50 (ACHN) was > 100 µM (inactive). The GI50 (DLD-1) was 53.7 µM (inactive).
In the case of COc1cc(CNc2ccc(C)cc2)cc(OC)c1OC, the GI50 (HOP-92) was 3.34 µM (inactive), the GI50 (LOX IMVI) was 0.621 µM (active) and the GI50 (OVCAR-8) was 0.624 µM (active). For the same compound, the GI50 (SW-620) was 0.149 µM (active), the GI50 (DMS-114) was 0.277 µM (active) and the GI50 (786-0) was 0.384 µM (active). For the same compound, the GI50 (U-251) was 0.356 µM (active), the GI50 (OVCAR-3) was 0.213 µM (active) and the GI50 (RPMI-8226) was 0.467 µM (active). The GI50 (KM-20L2) was 0.246 µM (active), the GI50 (NCI-H460) was 0.252 µM (active) and the GI50 (CCRF-CEM) was 0.252 µM (active). For the same compound, the GI50 (A549) was 0.5 µM (active), the GI50 (OVCAR-5) was 1.74 µM (inactive) and the GI50 (NCI-H522) was 0.255 µM (active). The GI50 (SR) was 0.138 µM (active), the GI50 (K562) was 0.0826 µM (active) and the GI50 (SK-MEL-5) was 0.472 µM (active). The GI50 (HOP-62) was 0.386 µM (active), the GI50 (UO-31) was 0.807 µM (active) and the GI50 (RXF 393) was 0.163 µM (active). For the same compound, the GI50 (MOLT-4) was 0.331 µM (active), the GI50 (SK-OV-3) was 0.301 µM (active) and the GI50 (HL-60) was 0.0764 µM (active). The GI50 (M19-MEL) was 0.33 µM (active), the GI50 (NCI-H23) was 0.361 µM (active) and the GI50 (SK-MEL-2) was 0.229 µM (active). For the same compound, the GI50 (SNB-75) was 0.316 µM (active), the GI50 (SF-268) was 0.741 µM (active) and the GI50 (SNB-19) was 0.533 µM (active). The GI50 (DMS-273) was 0.103 µM (active), the GI50 (COLO 205) was 0.219 µM (active) and the GI50 (IGROV-1) was 0.659 µM (active). For the same compound, the GI50 (LXFL 529) was 0.635 µM (active), the GI50 (XF498) was 0.962 µM (active) and the GI50 (DLD-1) was 0.45 µM (active).
